Data: patent publication US12162897B2, “1,4-sulfur-bridged polycyclic compounds containing dihydrobenzofuran structure, its preparation method and application thereof” (Chengdu University, priority 2021, dated 2024)

Legend:
[1] = tested on: human leukemia cells K562; assay: Cell viability assay, human leukemia cells K562; assay type: cell-based; details: 5000 cells per well, 96-well plate, 48 hours with compound, mean of repeats
Protocol: (§1) Specific experimental operations: 5000 human leukemia cells K562 and human lung cancer cells A549 are seeded into 96-well cell culture plates respectively to grow for 24 hours. Then, a predetermined concentration of the above synthesized compounds are added respectively, wherein the antitumor drug cisplatin is used as a control for 48 hours. The mean 50% inhibitory concentration (IC50) of all compounds is then determined. Each concentration is repeated at least three times, and all experiments are repeated three times, and the average results obtained are shown in Table 1.

[2] = tested on: human lung cancer cells A549; assay: Cell viability assay, human lung cancer cells A549; assay type: cell-based; details: 5000 cells per well, 96-well plate, 48 hours with compound, mean of repeats
Protocol: as §1

Compound | IC50 ([1]; Homo sapiens, K562, 48 h) | IC50 ([2]; Homo sapiens, A549, 48 h) | IC50 [1] | IC50 [2]
C[C@@]12S[C@@](c3ccc(Br)cc3)(NC1=O)[C@]1([N+](=O)[O-])Oc3ccccc3[C@H]21 [I-ae] | 54.7 µM | 45.5 µM | – | –
Cc1ccc2c(c1)O[C@]1([N+](=O)[O-])[C@H]2[C@]2(C)S[C@@]1(c1ccccc1)NC2=O [I-ia] | 14.5 µM | 33.3 µM | – | –
C[C@@]12S[C@@](c3ccccc3)(NC1=O)[C@]1([N+](=O)[O-])Oc3cc(Br)ccc3[C@H]21 [I-ga] | 7.09 µM | 30.8 µM | – | –
C[C@@]12S[C@@](c3ccc4ccccc4n3)(NC1=O)[C@]1([N+](=O)[O-])Oc3ccccc3[C@H]21 [I-ah] | 59.4 µM | 20.5 µM | – | –
C[C@@]12S[C@@](c3ccccc3F)(NC1=O)[C@]1([N+](=O)[O-])Oc3ccccc3[C@H]21 [I-ab] | 52.2 µM | 57 µM | – | –
C[C@@]12S[C@@](c3ccccc3)(NC1=O)[C@]1([N+](=O)[O-])Oc3ccc(Br)cc3[C@H]21 [I-fa] | 30.9 µM | 67.6 µM | – | –
C[C@@]12S[C@@](c3ccccc3)(NC1=O)[C@]1([N+](=O)[O-])Oc3cccc(Cl)c3[C@H]21 [I-da] | 10.3 µM | 34.3 µM | – | –
COc1cc(Br)cc2c1O[C@]1([N+](=O)[O-])[C@H]2[C@]2(C)S[C@@]1(c1ccccc1)NC2=O [I-la] | 3.1 µM | 15.6 µM | – | –
C[C@@]12S[C@@](c3ccccc3)(NC1=O)[C@]1([N+](=O)[O-])Oc3ccc([N+](=O)[O-])cc3[C@H]21 [I-ha] | 22.3 µM | 67.3 µM | – | –
N.N.[Cl][Pt][Cl] [Cisplatin, cisplatin, reference compound] | – | – | 20.3 µM | 24 µM
CC(C)(C)c1ccc2c(c1)[C@@H]1[C@]3(C)S[C@@](c4ccccc4)(NC3=O)[C@]1([N+](=O)[O-])O2 [I-ka] | 29.6 µM | 33 µM | – | –
C[C@@]12S[C@@](c3ccc(Cl)cc3)(NC1=O)[C@]1([N+](=O)[O-])Oc3ccccc3[C@H]21 [I-ad] | 50.2 µM | 40 µM | – | –
C[C@@]12S[C@@](c3ccccc3)(NC1=O)[C@]1([N+](=O)[O-])Oc3ccc(Cl)cc3[C@H]21 [I-ea] | 21.4 µM | 45.3 µM | – | –
COc1ccc2c(c1)O[C@]1([N+](=O)[O-])[C@H]2[C@]2(C)S[C@@]1(c1ccccc1)NC2=O [I-ja] | 2.6 µM | 4.83 µM | – | –
C[C@@]12S[C@@](c3ccccc3)(NC1=O)[C@]1([N+](=O)[O-])Oc3ccc(F)cc3[C@H]21 [I-ba] | 13 µM | 32.6 µM | – | –
C[C@@]12S[C@@](c3ccc(F)cc3)(NC1=O)[C@]1([N+](=O)[O-])Oc3ccccc3[C@H]21 [I-ac] | 74.6 µM | 58.2 µM | – | –
C[C@@]12S[C@@](c3ccccc3)(NC1=O)[C@]1([N+](=O)[O-])Oc3c(F)cccc3[C@H]21 [I-ca] | 19 µM | 57.7 µM | – | –
C[C@@]12S[C@@](c3ccccc3)(NC1=O)[C@]1([N+](=O)[O-])Oc3ccccc3[C@H]21 [I-aa] | 12.4 µM | 28.2 µM | – | –
C[C@@]12S[C@@](c3cccc(Br)c3F)(NC1=O)[C@]1([N+](=O)[O-])Oc3ccccc3[C@H]21 [I-ag] | – | – | 30.2 µM | 44.6 µM
C[C@@]12S[C@@](c3ccccn3)(NC1=O)[C@]1([N+](=O)[O-])Oc3ccccc3[C@H]21 [I-ai] | 32.3 µM | 23.9 µM | – | –
C[C@@]12S[C@@](c3cccc(Br)c3F)(NC1=O)[C@]1([N+](=O)[O-])Oc3ccccc3[C@H]21 [I-af] | 46.4 µM | 39.5 µM | – | –
